# Source: ChEMBL document CHEMBL3885861, “Open TG-GATES”
# Species on record: Rattus norvegicus
# Assay: Open TG-GATES - Regimen: Daily Repeat
# Assay type: toxicity, organism-based, Sprague-Dawley
# Design: regimen Daily Repeat, gender Male, age 6 weeks
# Conditions: in vivo, po, 100 mg/kg, route gavage, dose level High; for APTT / Bas / Eos / Fbg / Hb / Ht / Lym / MCH / MCHC / MCV / Mono / Neu / PT / Plat / RBC / Ret / WBC: tissue Blood; for KIDNEY_L / KIDNEY_R / KIDNEY_TOTAL: tissue Kidney; for LIVER: tissue Liver; for A/G / ALP / ALT / AST / BUN / CRE / Ca / Cl / DBIL / GLC / IP / K / LDH / Na / PL / RALB / TBIL / TC / TG / TP / gamma-GTP: tissue Plasma
smiles,measurement,setting,value
Nc1ccc(Cc2ccc(N)cc2)cc1,TERMINAL_BW,"72 h, time 3 day",208.1 g
same,APTT,"72 h, time 3 day",17.9 s
same,Bas,"72 h, time 3 day",0.6%
same,Eos,"72 h, time 3 day",1%
same,Fbg,"72 h, time 3 day",405.8 mg/dL
same,Hb,"72 h, time 3 day",12.8 g/dL
same,Ht,"72 h, time 3 day",35.9%
same,Lym,"72 h, time 3 day",66.8%
same,MCH,"72 h, time 3 day",19.9 pg
same,MCHC,"72 h, time 3 day",35.8%
same,MCV,"72 h, time 3 day",55.5 fL
same,Mono,"72 h, time 3 day",6.2%
same,Neu,"72 h, time 3 day",25.2%
same,PT,"72 h, time 3 day",12 s
same,Plat,"72 h, time 3 day",166 x10_4/uL
same,RBC,"72 h, time 3 day",646 x10_4/ul
same,Ret,"72 h, time 3 day",4.3%
same,WBC,"72 h, time 3 day",223.6 x10_2/uL
same,KIDNEY_L,"72 h, time 3 day",1 g
same,KIDNEY_R,"72 h, time 3 day",1 g
same,KIDNEY_TOTAL,"72 h, time 3 day",2 g
same,LIVER,"72 h, time 3 day",11.6 g
same,A/G,"72 h, time 3 day",0.6
same,ALP,"72 h, time 3 day",3437 IU/L
same,ALT,"72 h, time 3 day",290.2 IU/L
same,AST,"72 h, time 3 day",509.2 IU/L
same,BUN,"72 h, time 3 day",12.6 mg/dL
same,CRE,"72 h, time 3 day",0.2 mg/dL
same,Ca,"72 h, time 3 day",11.3 mg/dL
same,Cl,"72 h, time 3 day",103.8 meq/L
same,DBIL,"72 h, time 3 day",1.3 mg/dL
same,GLC,"72 h, time 3 day",145.2 mg/dL
same,IP,"72 h, time 3 day",7.3 mg/dL
same,K,"72 h, time 3 day",4.7 meq/L
same,LDH,"72 h, time 3 day",160.6 IU/L
same,Na,"72 h, time 3 day",141.6 meq/L
same,PL,"72 h, time 3 day",325.8 mg/dL
same,RALB,"72 h, time 3 day",2.3 g/dL
same,TBIL,"72 h, time 3 day",2.7 mg/dL
same,TC,"72 h, time 3 day",221 mg/dL
same,TG,"72 h, time 3 day",69.4 mg/dL
same,TP,"72 h, time 3 day",5.9 g/dL
same,gamma-GTP,"72 h, time 3 day",7.8 IU/L
same,TERMINAL_BW,"[…], time 7 day",235.7 g
same,TERMINAL_BW,"[…], time 14 day",264.2 g
same,TERMINAL_BW,"[…], time 28 day",273.7 g
same,APTT,"[…], time 7 day",17.6 s
same,Bas,"[…], time 7 day",0.6%
same,Eos,"[…], time 7 day",0.6%
same,Fbg,"[…], time 7 day",273.8 mg/dL
same,Hb,"[…], time 7 day",12.4 g/dL
same,Ht,"[…], time 7 day",34.8%
same,Lym,"[…], time 7 day",66.6%
same,MCH,"[…], time 7 day",19.7 pg
same,MCHC,"[…], time 7 day",35.6%
same,MCV,"[…], time 7 day",55.2 fL
same,Mono,"[…], time 7 day",5.8%
same,Neu,"[…], time 7 day",25.8%
same,PT,"[…], time 7 day",12.5 s
same,Plat,"[…], time 7 day",193.4 x10_4/uL
same,RBC,"[…], time 7 day",631 x10_4/ul
same,Ret,"[…], time 7 day",7.9%
same,WBC,"[…], time 7 day",238.1 x10_2/uL
same,APTT,"[…], time 14 day",21.7 s
same,Bas,"[…], time 14 day",1%
same,Eos,"[…], time 14 day",1%
same,Fbg,"[…], time 14 day",292.2 mg/dL
same,Hb,"[…], time 14 day",11.9 g/dL
same,Ht,"[…], time 14 day",33.6%
same,Lym,"[…], time 14 day",69.4%
same,MCH,"[…], time 14 day",19.8 pg
same,MCHC,"[…], time 14 day",35.4%
same,MCV,"[…], time 14 day",56 fL
same,Mono,"[…], time 14 day",5.6%
same,Neu,"[…], time 14 day",22.8%
same,PT,"[…], time 14 day",13 s
same,Plat,"[…], time 14 day",166.6 x10_4/uL
same,RBC,"[…], time 14 day",601.8 x10_4/ul
same,Ret,"[…], time 14 day",8.1%
same,WBC,"[…], time 14 day",308 x10_2/uL
same,APTT,"[…], time 28 day",37.8 s
same,Bas,"[…], time 28 day",0.8%
same,Eos,"[…], time 28 day",1%
same,Fbg,"[…], time 28 day",275.8 mg/dL
same,Hb,"[…], time 28 day",12.1 g/dL
same,Ht,"[…], time 28 day",33.5%
same,Lym,"[…], time 28 day",67.2%
same,MCH,"[…], time 28 day",18.4 pg
same,MCHC,"[…], time 28 day",36.1%
same,MCV,"[…], time 28 day",51.2 fL
same,Mono,"[…], time 28 day",4%
same,Neu,"[…], time 28 day",26.6%
same,PT,"[…], time 28 day",15.2 s
same,Plat,"[…], time 28 day",121.3 x10_4/uL
same,RBC,"[…], time 28 day",654 x10_4/ul
same,Ret,"[…], time 28 day",5.8%
same,WBC,"[…], time 28 day",304.5 x10_2/uL
same,KIDNEY_L,"[…], time 7 day",1 g
same,KIDNEY_R,"[…], time 7 day",1 g
same,KIDNEY_TOTAL,"[…], time 7 day",2 g
same,KIDNEY_L,"[…], time 14 day",1 g
same,KIDNEY_R,"[…], time 14 day",1.1 g
same,KIDNEY_TOTAL,"[…], time 14 day",2.1 g
same,KIDNEY_L,"[…], time 28 day",1.1 g
same,KIDNEY_R,"[…], time 28 day",1 g
same,KIDNEY_TOTAL,"[…], time 28 day",2.1 g
same,LIVER,"[…], time 7 day",13.1 g
same,LIVER,"[…], time 14 day",16.2 g
same,LIVER,"[…], time 28 day",14.1 g
same,A/G,"[…], time 7 day",0.6
same,ALP,"[…], time 7 day",3310.8 IU/L
same,ALT,"[…], time 7 day",96.2 IU/L
same,AST,"[…], time 7 day",198.8 IU/L
same,BUN,"[…], time 7 day",13 mg/dL
same,CRE,"[…], time 7 day",0.2 mg/dL
same,Ca,"[…], time 7 day",11.6 mg/dL
same,Cl,"[…], time 7 day",103.8 meq/L
same,DBIL,"[…], time 7 day",0.9 mg/dL
same,GLC,"[…], time 7 day",148.4 mg/dL
same,IP,"[…], time 7 day",6.9 mg/dL
same,K,"[…], time 7 day",4.4 meq/L
same,LDH,"[…], time 7 day",95 IU/L
same,Na,"[…], time 7 day",143.6 meq/L
same,PL,"[…], time 7 day",213.6 mg/dL
same,RALB,"[…], time 7 day",2.4 g/dL
same,TBIL,"[…], time 7 day",1.7 mg/dL
same,TC,"[…], time 7 day",135 mg/dL
same,TG,"[…], time 7 day",48.6 mg/dL
same,TP,"[…], time 7 day",6.1 g/dL
same,gamma-GTP,"[…], time 7 day",6 IU/L
same,A/G,"[…], time 14 day",0.5
same,ALP,"[…], time 14 day",2423.6 IU/L
same,ALT,"[…], time 14 day",91.4 IU/L
same,AST,"[…], time 14 day",260 IU/L
same,BUN,"[…], time 14 day",17.6 mg/dL
same,CRE,"[…], time 14 day",0.2 mg/dL
same,Ca,"[…], time 14 day",11.4 mg/dL
same,Cl,"[…], time 14 day",103.6 meq/L
same,DBIL,"[…], time 14 day",0.7 mg/dL
same,GLC,"[…], time 14 day",143.6 mg/dL
same,IP,"[…], time 14 day",6.4 mg/dL
same,K,"[…], time 14 day",4.1 meq/L
same,LDH,"[…], time 14 day",143.8 IU/L
same,Na,"[…], time 14 day",143.6 meq/L
same,PL,"[…], time 14 day",226.4 mg/dL
same,RALB,"[…], time 14 day",2.5 g/dL
same,TBIL,"[…], time 14 day",1.6 mg/dL
same,TC,"[…], time 14 day",165.4 mg/dL
same,TG,"[…], time 14 day",49.6 mg/dL
same,TP,"[…], time 14 day",7 g/dL
same,gamma-GTP,"[…], time 14 day",8 IU/L
same,A/G,"[…], time 28 day",0.5
same,ALP,"[…], time 28 day",3009.6 IU/L
same,ALT,"[…], time 28 day",116.6 IU/L
same,AST,"[…], time 28 day",300 IU/L
same,BUN,"[…], time 28 day",19.2 mg/dL
same,CRE,"[…], time 28 day",0.3 mg/dL
same,Ca,"[…], time 28 day",11.5 mg/dL
same,Cl,"[…], time 28 day",102 meq/L
same,DBIL,"[…], time 28 day",0.6 mg/dL
same,GLC,"[…], time 28 day",144 mg/dL
same,IP,"[…], time 28 day",5.6 mg/dL
same,K,"[…], time 28 day",4 meq/L
same,LDH,"[…], time 28 day",108.6 IU/L
same,Na,"[…], time 28 day",146.2 meq/L
same,PL,"[…], time 28 day",158.4 mg/dL
same,RALB,"[…], time 28 day",2.5 g/dL
same,TBIL,"[…], time 28 day",1.7 mg/dL
same,TC,"[…], time 28 day",113.4 mg/dL
same,TG,"[…], time 28 day",33.2 mg/dL
same,TP,"[…], time 28 day",7.6 g/dL
same,gamma-GTP,"[…], time 28 day",7.2 IU/L
